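Cells were grown in 96-well plates and exposed to each compound for 48 hours at five concentrations; endpoints were interpolated linearly between bracketing concentrations, or set to the highest concentration if not reached. Here, GI50 denotes the concentration required for 50% inhibition of growth.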 Active and inactive are the calls of the source. Cut-off read from the data, not from the text of the source: active = GI50 up to about 1.1 µM and inactive = higher.
Experiments:
Assay in all cases: DTP human tumour cell line panel, 48 h
HT-29 = test system: HT-29
UACC-62 = test system: UACC-62
SK-OV-3 = test system: SK-OV-3
KM12 = test system: KM12
SF-295 = test system: SF-295
RPMI-8226 = test system: RPMI-8226
HOP-92 = test system: HOP-92
K562 = test system: K562
UACC-257 = test system: UACC-257
SK-MEL-2 = test system: SK-MEL-2
CCRF-CEM = test system: CCRF-CEM
HL-60 = test system: HL-60
SW-620 = test system: SW-620
786-0 = test system: 786-0
SK-MEL-28 = test system: SK-MEL-28
ACHN = test system: ACHN
CAKI-1 = test system: CAKI-1
RXF 393 = test system: RXF 393
Malme-3M = test system: Malme-3M
HCC 2998 = test system: HCC 2998

Structure (SMILES) | GI50 (HT-29) | GI50 (UACC-62) | GI50 (SK-OV-3) | GI50 (KM12) | GI50 (SF-295) | GI50 (RPMI-8226) | GI50 (HOP-92) | GI50 (K562) | GI50 (UACC-257) | GI50 (SK-MEL-2) | GI50 (CCRF-CEM) | GI50 (HL-60) | GI50 (SW-620) | GI50 (786-0) | GI50 (SK-MEL-28) | GI50 (ACHN) | GI50 (CAKI-1) | GI50 (RXF 393) | GI50 (Malme-3M) | GI50 (HCC 2998)
CCCCCCCCCCCCCCC(O)C[N+](C)(CCO)CCO (stereo not given) | 2.12 µM (inactive) | 2.47 µM (inactive) | 12.9 µM (inactive) | 1.94 µM (inactive) | 2.25 µM (inactive) | 1.92 µM (inactive) | 0.885 µM (active) | 4.24 µM (inactive) | 11.1 µM (inactive) | 7.31 µM (inactive) | 1.57 µM (inactive) | 0.585 µM (active) | 6.22 µM (inactive) | 1.98 µM (inactive) | 9.79 µM (inactive) | 6.01 µM (inactive) | 1.32 µM (inactive) | 1.41 µM (inactive) | 2.06 µM (inactive) | 1.73 µM (inactive)
CCOC(=O)CCC(C(=O)OCC)n1nnc2ccc(Nc3c(C)[n+]([O-])c4cc(Cl)ccc4[n+]3[O-])cc21 (stereo not given) | 27.2 µM (inactive) | 17.4 µM (inactive) | 99.5 µM (inactive) | 22.2 µM (inactive) | 68.1 µM (inactive) | 20.9 µM (inactive) | 16 µM (inactive) | 22.6 µM (inactive) | 16.3 µM (inactive) | 21.7 µM (inactive) | 29.1 µM (inactive) | 29.9 µM (inactive) | – | 45.4 µM (inactive) | – | 34.7 µM (inactive) | 34.4 µM (inactive) | 22.4 µM (inactive) | 17.3 µM (inactive) | 16.8 µM (inactive)
COC(=O)C1CC(C(=O)OC)c2nc3cc([N+](=O)[O-])ccc3nc21 (stereo not given) | 51.3 µM (inactive) | 22.6 µM (inactive) | > 94 µM (inactive) | 23.1 µM (inactive) | 25.5 µM (inactive) | 26.1 µM (inactive) | > 100 µM (inactive) | 14.7 µM (inactive) | 55.6 µM (inactive) | > 100 µM (inactive) | 9.53 µM (inactive) | 7.23 µM (inactive) | 89.9 µM (inactive) | > 87.9 µM (inactive) | > 77.3 µM (inactive) | 45.9 µM (inactive) | 59.8 µM (inactive) | 31.6 µM (inactive) | > 100 µM (inactive) | 30.5 µM (inactive)
Fc1ccc2c(c1)nc1n2C(c2c(Cl)cccc2Cl)SC1 (stereo not given) | 16 µM (inactive) | 11.8 µM (inactive) | 14.8 µM (inactive) | 12 µM (inactive) | 13.7 µM (inactive) | 13.4 µM (inactive) | 6.87 µM (inactive) | – | 13.5 µM (inactive) | 15 µM (inactive) | – | 12.3 µM (inactive) | 13.2 µM (inactive) | 16 µM (inactive) | 10.8 µM (inactive) | 16.9 µM (inactive) | 12.3 µM (inactive) | 17.3 µM (inactive) | 13 µM (inactive) | 15.7 µM (inactive)
O=C(Nc1ccc(Cl)cc1)c1cc(S(=O)(=O)Nc2n[nH]c(Nc3ccc4ccccc4c3)n2)c(SSc2cc(Cl)c(C(=O)Nc3ccc(Cl)cc3)cc2S(=O)(=O)Nc2n[nH]c(Nc3ccc4ccccc4c3)n2)cc1Cl | 20.6 µM (inactive) | 22.9 µM (inactive) | 33.5 µM (inactive) | 20 µM (inactive) | 20.5 µM (inactive) | 22 µM (inactive) | 28.2 µM (inactive) | 20.5 µM (inactive) | 33.1 µM (inactive) | – | 20.5 µM (inactive) | 25.1 µM (inactive) | 21.3 µM (inactive) | 31.2 µM (inactive) | 21.8 µM (inactive) | 21.6 µM (inactive) | 19.1 µM (inactive) | 32.5 µM (inactive) | 21.6 µM (inactive) | 17.9 µM (inactive)
CN(N=O)C(=O)NNC(=O)N(C)N=O | > 100 µM (inactive) | 92.5 µM (inactive) | > 100 µM (inactive) | > 100 µM (inactive) | 94.6 µM (inactive) | 32.7 µM (inactive) | 47.1 µM (inactive) | 66.1 µM (inactive) | > 100 µM (inactive) | 73.3 µM (inactive) | 31.7 µM (inactive) | 31.6 µM (inactive) | 36.2 µM (inactive) | 48.3 µM (inactive) | > 100 µM (inactive) | > 100 µM (inactive) | > 100 µM (inactive) | 26.8 µM (inactive) | – | > 100 µM (inactive)
NCCCN(CCCN)CCc1cn(C(=O)c2ccccc2)cn1 | 11.9 µM (inactive) | 8.57 µM (inactive) | 11.2 µM (inactive) | 7.82 µM (inactive) | 12.7 µM (inactive) | 2.38 µM (inactive) | 4.05 µM (inactive) | 3.61 µM (inactive) | 9.2 µM (inactive) | 9.1 µM (inactive) | 2.17 µM (inactive) | 3.84 µM (inactive) | 10.2 µM (inactive) | 8.59 µM (inactive) | 13.8 µM (inactive) | 6.5 µM (inactive) | 4.46 µM (inactive) | 2.97 µM (inactive) | 14.7 µM (inactive) | 4.52 µM (inactive)
O=C(O)CCNS(=O)(=O)c1ccc([N+](=O)[O-])cc1 | > 100 µM (inactive) | > 100 µM (inactive) | > 100 µM (inactive) | > 100 µM (inactive) | > 100 µM (inactive) | > 100 µM (inactive) | > 100 µM (inactive) | > 100 µM (inactive) | > 100 µM (inactive) | > 100 µM (inactive) | > 100 µM (inactive) | > 100 µM (inactive) | > 100 µM (inactive) | > 100 µM (inactive) | > 100 µM (inactive) | > 100 µM (inactive) | > 100 µM (inactive) | > 100 µM (inactive) | > 100 µM (inactive) | > 100 µM (inactive)
CC(=O)Oc1cc2c(=O)oc3c(OC(C)=O)c(OC(C)=O)c(OC(C)=O)c4c(=O)oc(c1OC(C)=O)c2c34 | 37.9 µM (inactive) | 33.2 µM (inactive) | 36.3 µM (inactive) | > 100 µM (inactive) | 20.8 µM (inactive) | 73.8 µM (inactive) | 25.2 µM (inactive) | 53.5 µM (inactive) | 45.5 µM (inactive) | 28.8 µM (inactive) | 19.2 µM (inactive) | 56 µM (inactive) | 34.5 µM (inactive) | 38 µM (inactive) | 32.7 µM (inactive) | 48.3 µM (inactive) | > 100 µM (inactive) | 6.18 µM (inactive) | 29.4 µM (inactive) | > 100 µM (inactive)
CC1(C)O[C@@H](CCl)C[C@@H](C#N)O1 | > 100 µM (inactive) | > 100 µM (inactive) | > 100 µM (inactive) | > 100 µM (inactive) | > 100 µM (inactive) | > 100 µM (inactive) | > 100 µM (inactive) | > 100 µM (inactive) | > 100 µM (inactive) | > 100 µM (inactive) | > 100 µM (inactive) | > 100 µM (inactive) | > 100 µM (inactive) | > 100 µM (inactive) | > 100 µM (inactive) | > 100 µM (inactive) | > 100 µM (inactive) | > 100 µM (inactive) | > 100 µM (inactive) | > 100 µM (inactive)
O=C1OC(c2ccccc2)=N/C1=C\c1ccc(Cl)cc1 | > 100 µM (inactive) | > 100 µM (inactive) | > 100 µM (inactive) | > 100 µM (inactive) | > 100 µM (inactive) | > 100 µM (inactive) | > 100 µM (inactive) | > 100 µM (inactive) | > 100 µM (inactive) | > 100 µM (inactive) | 61.5 µM (inactive) | > 100 µM (inactive) | > 100 µM (inactive) | > 100 µM (inactive) | > 100 µM (inactive) | > 100 µM (inactive) | > 100 µM (inactive) | > 100 µM (inactive) | – | > 100 µM (inactive)
COc1cc2c(oc(=O)c3c4occc4cc(OC)c23)c2cccc(O)c12 | > 100 µM (inactive) | > 100 µM (inactive) | > 100 µM (inactive) | > 100 µM (inactive) | > 100 µM (inactive) | > 100 µM (inactive) | > 100 µM (inactive) | > 100 µM (inactive) | > 100 µM (inactive) | – | > 100 µM (inactive) | > 100 µM (inactive) | > 100 µM (inactive) | > 100 µM (inactive) | > 100 µM (inactive) | > 100 µM (inactive) | > 100 µM (inactive) | > 100 µM (inactive) | > 100 µM (inactive) | > 100 µM (inactive)
Nc1ccc(C(=O)NN2C(=O)C(Cl)C2c2ccccc2Cl)cc1 (stereo not given) | 10.3 µM (inactive) | 8.69 µM (inactive) | 16.1 µM (inactive) | 12.1 µM (inactive) | 2.95 µM (inactive) | 6.25 µM (inactive) | 4.48 µM (inactive) | – | 13.6 µM (inactive) | 11.3 µM (inactive) | 1.81 µM (inactive) | 1.02 µM (active) | 3.46 µM (inactive) | 1.69 µM (inactive) | 14.8 µM (inactive) | 16.4 µM (inactive) | 13.9 µM (inactive) | 5.48 µM (inactive) | 17.6 µM (inactive) | 16.5 µM (inactive)
COc1ccc(-c2cc(=O)c3c(OC)c(OC)c(OC)cc3o2)cc1 | 28.4 µM (inactive) | 27.5 µM (inactive) | 24.3 µM (inactive) | – | 24.5 µM (inactive) | 27 µM (inactive) | 20.6 µM (inactive) | 34.4 µM (inactive) | 40.8 µM (inactive) | 21.1 µM (inactive) | 14 µM (inactive) | 11.7 µM (inactive) | 36.8 µM (inactive) | 19.9 µM (inactive) | 45.6 µM (inactive) | 24.4 µM (inactive) | 68.7 µM (inactive) | 30.1 µM (inactive) | 38 µM (inactive) | 16.8 µM (inactive)

From ChEMBL document CHEMBL1201862, “PubChem BioAssay data set” (2004)
